Assay results published in patent publication US20230053540A1, “TREATMENT OF LIVER INJURY” (Massachusetts Institute of Technology, priority 2019, published 2023).

System: hepatocytes
Assay: Seq-Well scRNA-Seq of hepatocytes after APAP overdose (signature scores, DEG vs untreated)
Format: in vivo, mouse

SMILES: CC(=O)Nc1ccc(O)cc1 [APAP, acetaminophen]
- S100a9 pct.1 (A6): 0.399
- Saa4 pct.1 (A6): 0.437
- Sat1 pct.1 (A6): 0.47
- Scp2 pct.1 (A6): 0.866
- Sdc4 pct.1 (A6): 0.909
- Sec1412 pct.1 (A6): 0.484
- Selenbp2 pct.1 (A6): 0.609
- Serpina1a pct.1 (A6): 0.914
- Serpina3m pct.1 (A6): 0.85
- Serpina3n pct.1 (A6): 0.747
- Slc16a6 pct.1 (A6): 0.47
- Slc22a1 pct.1 (A6): 0.36
- Slc25a47 pct.1 (A6): 0.869
- Slc39a14 pct.1 (A6): 0.678
- Sod1 pct.1 (A6): 0.931
- Sqstm1 pct.1 (A6): 0.859
- Srgn pct.1 (A6): 0.284
- Srxn1 pct.1 (A6): 0.821
- St3gal1 pct.1 (A6): 0.473
- St3gal5 pct.1 (A6): 0.706
- Stat3 pct.1 (A6): 0.604
- Stk40 pct.1 (A6): 0.382
- Tiparp pct.1 (A6): 0.346
- Tmem205 pct.1 (A6): 0.695
- Tmsb4x pct.1 (A6): 0.332
- Tnfrsf1a pct.1 (A6): 0.508
- Tnfrsf12a pct.1 (A6): 0.623
- Tra2a pct.1 (A6): 0.337
- Trp53inp1 pct.1 (A6): 0.637
- Ttc36 pct.1 (A6): 0.768
- Ttr pct.1 (A6): 0.993
- Tubb2a pct.1 (A6): 0.618
- Tubb6 pct.1 (A6): 0.368
- Txnrd1 pct.1 (A6): 0.838
- Tyrobp pct.1 (A6): 0.189
- Ubc pct.1 (A6): 0.573
- Ugdh pct.1 (A6): 0.721
- Ugt2b5 pct.1 (A6): 0.847
- Ugt2b36 pct.1 (A6): 0.745
- Uox pct.1 (A6): 0.905
- Upp2 pct.1 (A6): 0.274
- Uqcr11 pct.1 (A6): 0.606
- Urah pct.1 (A6): 0.525
- Wbp1l pct.1 (A6): 0.697
- Xbp1 pct.1 (A6): 0.692
- Ywhag pct.1 (A6): 0.518
- mmu-mir-6240 pct.1 (A6): 0.413
- mt-Co2 pct.1 (A6): 0.2
- mt-Nd1 pct.1 (A6): 0.983
- mt-Nd4 pct.1 (A6): 0.964
- n-R5-8s1 pct.1 (A6): 0.308
- 2-Mar avg_logFC (A6 vs UT): −0.5599
- 0610005C13Rik avg_logFC (A6 vs UT): −0.4251
- 0610005C13Rik pct.1 (A6 vs UT): 0.427
- 0610007P14Rik A6logFC (A6 vs UT): −0.257
- 1110001J03Rik avg_logFC (A6 vs UT): −0.4328
- 1110001J03Rik pct.1 (A6 vs UT): 0.215
- 1110058L19Rik A6logFC (A6 vs UT): −0.2581
- 1500011K16Rik avg_logFC (A6 vs UT): −0.3296
- 1500011K16Rik pct.1 (A6 vs UT): 0.095
- 1600014C10Rik avg_logFC (A6 vs UT): −0.4982
- 1600014C10Rik pct.1 (A6 vs UT): 0.167
- 1700017B05Rik avg_logFC (A6 vs UT): 0.3307
- 1700017B05Rik pct.1 (A6 vs UT): 0.255
- 2010003K11Rik avg_logFC (A6 vs UT): 0.5884
- 2410015M20Rik avg_logFC (A6 vs UT): −0.4021
- 2410015M20Rik pct.1 (A6 vs UT): 0.344
- 2810007J24Rik avg_logFC (A6 vs UT): −0.9143
- 2810428I15Rik avg_logFC (A6 vs UT): −0.2631
- 2810428I15Rik pct.1 (A6 vs UT): 0.2
- 4931406C07Rik A6logFC (A6 vs UT): −0.2544
- 4931406C07Rik avg_logFC (A6 vs UT): −0.2544
- 4931406C07Rik pct.1 (A6 vs UT): 0.616
- 4932438A13Rik A6logFC (A6 vs UT): 0.2879
- 4932438A13Rik avg_logFC (A6 vs UT): 0.2879
- 4932438A13Rik pct.1 (A6 vs UT): 0.329
- 8430408G22Rik avg_logFC (A6 vs UT): −0.5021
- 2810428115Rik A6logFC (A6 vs UT): −0.2631
- Aadac avg_logFC (A6 vs UT): −0.62
- Aadat A6logFC (A6 vs UT): −0.3186
- Aass avg_logFC (A6 vs UT): 0.4775
- Abca1 avg_logFC (A6 vs UT): 0.7245
- Abcb11 A6logFC (A6 vs UT): −0.2618
- Abcb11 avg_logFC (A6 vs UT): −0.2618
- Abcb11 pct.1 (A6 vs UT): 0.618
- Abcc2 A6logFC (A6 vs UT): 0.2897
- Abcd3 A6logFC (A6 vs UT): −0.2718
- Abce1 A6logFC (A6 vs UT): 0.28
- Abce1 avg_logFC (A6 vs UT): 0.28
- Abce1 pct.1 (A6 vs UT): 0.437
- Abcf1 A6logFC (A6 vs UT): 0.3032
- Abcf1 avg_logFC (A6 vs UT): 0.3032
- Abcf1 pct.1 (A6 vs UT): 0.458
- Abcg2 A6logFC (A6 vs UT): −0.2809
- Abcg2 avg_logFC (A6 vs UT): −0.2809
- Abcg2 pct.1 (A6 vs UT): 0.294
- Abhd2 avg_logFC (A6 vs UT): 0.4844
- Acaa1a A6logFC (A6 vs UT): −0.3018
- Acaa1a avg_logFC (A6 vs UT): −0.3018
- Acaa1a pct.1 (A6 vs UT): 0.475
- Acaa1b avg_logFC (A6 vs UT): −0.7328
- Acads A6logFC (A6 vs UT): −0.3242
- Acat3 A6logFC (A6 vs UT): −0.3115
- Acat3 avg_logFC (A6 vs UT): −0.3115
- Acat3 pct.1 (A6 vs UT): 0.427
- Acot13 A6logFC (A6 vs UT): −0.2886
- Acsl1 avg_logFC (A6 vs UT): −0.3434
- Acsl1 pct.1 (A6 vs UT): 0.752
- Acsl4 avg_logFC (A6 vs UT): 0.2985
- Acsl4 pct.1 (A6 vs UT): 0.427
- Acsm1 avg_logFC (A6 vs UT): −0.3692
- Acsm1 pct.1 (A6 vs UT): 0.527
- Acsm5 A6logFC (A6 vs UT): −0.2614
- Acsm5 avg_logFC (A6 vs UT): −0.2614
- Acsm5 pct.1 (A6 vs UT): 0.236
- Actr3 A6logFC (A6 vs UT): 0.276
- Actr3 avg_logFC (A6 vs UT): 0.276
- Actr3 pct.1 (A6 vs UT): 0.36
- Acy3 avg_logFC (A6 vs UT): −0.3137
- Acy3 pct.1 (A6 vs UT): 0.131
- Adamts1 avg_logFC (A6 vs UT): 0.2826
- Adamts1 pct.1 (A6 vs UT): 0.2
- Adck3 avg_logFC (A6 vs UT): −0.8761
- Adh1 avg_logFC (A6 vs UT): −1.255
- Adh4 avg_logFC (A6 vs UT): −0.5269
- Adh5 avg_logFC (A6 vs UT): −0.4914
- Adh5 pct.1 (A6 vs UT): 0.649
- Adipor2 avg_logFC (A6 vs UT): −0.4738
- Adipor2 pct.1 (A6 vs UT): 0.578
- Aes A6logFC (A6 vs UT): −0.2642
- Aes avg_logFC (A6 vs UT): −0.2642
- Aes pct.1 (A6 vs UT): 0.535
- Aff4 avg_logFC (A6 vs UT): 0.6163
- Aff4 pct.1 (A6 vs UT): 0.537
- Agmat avg_logFC (A6 vs UT): −0.4718
- Agmat pct.1 (A6 vs UT): 0.339
- Agpat2 A6logFC (A6 vs UT): −0.2982
- Agpat9 avg_logFC (A6 vs UT): 0.327
- Agxt A6logFC (A6 vs UT): −0.2584
- Agxt avg_logFC (A6 vs UT): −0.2584
- Agxt pct.1 (A6 vs UT): 0.601
- Akap13 avg_logFC (A6 vs UT): 0.4953
- Akap13 pct.1 (A6 vs UT): 0.406
- Akr1c6 avg_logFC (A6 vs UT): −1.586
- Akr1c14 avg_logFC (A6 vs UT): −0.5186
- Akr1c14 pct.1 (A6 vs UT): 0.413
- Akr1c20 avg_logFC (A6 vs UT): −0.5542
- Akr1d1 avg_logFC (A6 vs UT): −0.2789
- Akr1d1 pct.1 (A6 vs UT): 0.332
- Akr1e1 A6logFC (A6 vs UT): −0.2582
- Alad avg_logFC (A6 vs UT): −0.4206
- Alad pct.1 (A6 vs UT): 0.286
- Alb avg_logFC (A6 vs UT): 0.4203
- Alcam A6logFC (A6 vs UT): 0.3238
- Alcam avg_logFC (A6 vs UT): 0.3238
- Alcam pct.1 (A6 vs UT): 0.396
- Aldh1a1 avg_logFC (A6 vs UT): −0.4788
- Aldh3a2 avg_logFC (A6 vs UT): −0.8342
- Aldh4a1 A6logFC (A6 vs UT): −0.2907
- Aldh4a1 avg_logFC (A6 vs UT): −0.2907
- Aldh4a1 pct.1 (A6 vs UT): 0.425
- Aldh8a1 avg_logFC (A6 vs UT): −0.6837
- Aldob avg_logFC (A6 vs UT): 0.3153
- Aldob pct.1 (A6 vs UT): 0.998
- Amacr avg_logFC (A6 vs UT): −0.4136
- Amacr pct.1 (A6 vs UT): 0.294
- Anapc13 A6logFC (A6 vs UT): −0.3642
- Ang avg_logFC (A6 vs UT): −0.6629
- Anxa5 A6logFC (A6 vs UT): 0.3654
- Apoa2 avg_logFC (A6 vs UT): −0.5428
- Apoa4 avg_logFC (A6 vs UT): 1.368
- Apob avg_logFC (A6 vs UT): 0.5802
- Apobec1 avg_logFC (A6 vs UT): 0.3051
- Apobec1 pct.1 (A6 vs UT): 0.239
- Apoc1 avg_logFC (A6 vs UT): −0.8713
- Apoc3 avg_logFC (A6 vs UT): −0.7688
- Apoe avg_logFC (A6 vs UT): −0.369
- Apof A6logFC (A6 vs UT): −0.2522
- Apof avg_logFC (A6 vs UT): −0.2522
- Apof pct.1 (A6 vs UT): 0.759
- Apoh avg_logFC (A6 vs UT): −0.2623
- Apoh pct.1 (A6 vs UT): 0.924
- Apol7a avg_logFC (A6 vs UT): −0.4923
- App avg_logFC (A6 vs UT): 0.3618
- App pct.1 (A6 vs UT): 0.315
- Aqp9 A6logFC (A6 vs UT): −0.3109
- Arg1 avg_logFC (A6 vs UT): 0.3179
- Arg1 pct.1 (A6 vs UT): 0.983
- Arhgap5 avg_logFC (A6 vs UT): 0.264
- Arhgap5 pct.1 (A6 vs UT): 0.506
- Arhgdia A6logFC (A6 vs UT): 0.2563
- Arhgdia avg_logFC (A6 vs UT): 0.2563
- Arhgdia pct.1 (A6 vs UT): 0.317
- Arhgef12 avg_logFC (A6 vs UT): 0.5908
- Arl4d avg_logFC (A6 vs UT): −0.5072
- Arpc1b A6logFC (A6 vs UT): 0.2597
- Arpc1b avg_logFC (A6 vs UT): 0.2597
- Arpc1b pct.1 (A6 vs UT): 0.263
- Asgr1 avg_logFC (A6 vs UT): −0.3857
- Asgr1 pct.1 (A6 vs UT): 0.656
- Ash1l avg_logFC (A6 vs UT): 0.2657
- Ash1l pct.1 (A6 vs UT): 0.301
